Experimental data as given in ChEMBL document CHEMBL4665642, “Anticancer profile of newly synthesized BRAF inhibitors possess 5-(pyrimidin-4-yl)imidazo[2,1-b]thiazole scaffold” (Bioorg Med Chem, 2019).

Experiments:
Type in all cases: functional
Settings in all cases: read-out: Activity
Hs-578T = assay: Cytotoxicity against human HS-578T cells assessed as cell viability at 10 uM incubated for 48 hrs by sulforhodamine B assay relative to control
MDA-MB-231 = assay: Cytotoxicity against human MDA-MB-231 cells assessed as cell viability at 10 uM incubated for 48 hrs by sulforhodamine B assay relative to control
MCF7 = assay: Cytotoxicity against human MCF7 cells assessed as cell viability at 10 uM incubated for 48 hrs by sulforhodamine B assay relative to control
DU-145 = assay: Cytotoxicity against human DU-145 cells assessed as cell viability at 10 uM incubated for 48 hrs by sulforhodamine B assay relative to control
PC-3 = assay: Cytotoxicity against human PC-3 cells assessed as cell viability at 10 uM incubated for 48 hrs by sulforhodamine B assay relative to control
UO-31 = assay: Cytotoxicity against human UO-31 cells assessed as cell viability at 10 uM incubated for 48 hrs by sulforhodamine B assay relative to control
TK-10 = assay: Cytotoxicity against human TK-10 cells assessed as cell viability at 10 uM incubated for 48 hrs by sulforhodamine B assay relative to control
SN12C = assay: Cytotoxicity against human SN12C cells assessed as cell viability at 10 uM incubated for 48 hrs by sulforhodamine B assay relative to control
RXF 393 = assay: Cytotoxicity against human RXF 393 cells assessed as cell viability at 10 uM incubated for 48 hrs by sulforhodamine B assay relative to control
CAKI-1 = assay: Cytotoxicity against human CAKI-1 cells assessed as cell viability at 10 uM incubated for 48 hrs by sulforhodamine B assay relative to control
ACHN = assay: Cytotoxicity against human ACHN cells assessed as cell viability at 10 uM incubated for 48 hrs by sulforhodamine B assay relative to control
786-0 = assay: Cytotoxicity against human 786-0 cells assessed as cell viability at 10 uM incubated for 48 hrs by sulforhodamine B assay relative to control
OVCAR-8 = assay: Cytotoxicity against human OVCAR-8 cells assessed as cell viability at 10 uM incubated for 48 hrs by sulforhodamine B assay relative to control
OVCAR-5 = assay: Cytotoxicity against human OVCAR-5 cells assessed as cell viability at 10 uM incubated for 48 hrs by sulforhodamine B assay relative to control
OVCAR-3 = assay: Cytotoxicity against human OVCAR-3 cells assessed as cell viability at 10 uM incubated for 48 hrs by sulforhodamine B assay relative to control
IGROV-1 = assay: Cytotoxicity against human IGROV-1 cells assessed as cell viability at 10 uM incubated for 48 hrs by sulforhodamine B assay relative to control
UACC-257 = assay: Cytotoxicity against human UACC-257 cells assessed as cell viability at 10 uM incubated for 48 hrs by sulforhodamine B assay relative to control
SK-MEL-5 = assay: Cytotoxicity against human SK-MEL-5 cells assessed as cell viability at 10 uM incubated for 48 hrs by sulforhodamine B assay relative to control
SK-MEL-28 = assay: Cytotoxicity against human SK-MEL-28 cells assessed as cell viability at 10 uM incubated for 48 hrs by sulforhodamine B assay relative to control
SK-MEL-2 = assay: Cytotoxicity against human SK-MEL-2 cells assessed as cell viability at 10 uM incubated for 48 hrs by sulforhodamine B assay relative to control
M14 = assay: Cytotoxicity against human M14 cells assessed as cell viability at 10 uM incubated for 48 hrs by sulforhodamine B assay relative to control
MOLT-4 = assay: Cytotoxicity against human MOLT-4 cells assessed as cell viability at 10 uM incubated for 48 hrs by sulforhodamine B assay relative to control
RPMI-8226 = assay: Cytotoxicity against human RPMI-8226 cells assessed as cell viability at 10 uM incubated for 48 hrs by sulforhodamine B assay relative to control
SR = assay: Cytotoxicity against human SR cells assessed as cell viability at 10 uM incubated for 48 hrs by sulforhodamine B assay relative to control
A549 = assay: Cytotoxicity against human A549 cells assessed as cell viability at 10 uM incubated for 48 hrs by sulforhodamine B assay relative to control
HOP-62 = assay: Cytotoxicity against human HOP-62 cells assessed as cell viability at 10 uM incubated for 48 hrs by sulforhodamine B assay relative to control
HOP-92 = assay: Cytotoxicity against human HOP-92 cells assessed as cell viability at 10 uM incubated for 48 hrs by sulforhodamine B assay relative to control
NCI-H226 = assay: Cytotoxicity against human NCI-H226 cells assessed as cell viability at 10 uM incubated for 48 hrs by sulforhodamine B assay relative to control
NCI-H23 = assay: Cytotoxicity against human NCI-H23 cells assessed as cell viability at 10 uM incubated for 48 hrs by sulforhodamine B assay relative to control
NCI-H322M = assay: Cytotoxicity against human NCI-H322M cells assessed as cell viability at 10 uM incubated for 48 hrs by sulforhodamine B assay relative to control
COLO 205 = assay: Cytotoxicity against human COLO 205 cells assessed as cell viability at 10 uM incubated for 48 hrs by sulforhodamine B assay relative to control
HCC 2998 = assay: Cytotoxicity against human HCC 2998 cells assessed as cell viability at 10 uM incubated for 48 hrs by sulforhodamine B assay relative to control
HCT-116 = assay: Cytotoxicity against human HCT-116 cells assessed as cell viability at 10 uM incubated for 48 hrs by sulforhodamine B assay relative to control
HCT-15 = assay: Cytotoxicity against human HCT-15 cells assessed as cell viability at 10 uM incubated for 48 hrs by sulforhodamine B assay relative to control
HCT-29 = assay: Cytotoxicity against human […] cells assessed as cell viability at 10 uM incubated for 48 hrs by sulforhodamine B assay relative to control
SF-295 = assay: Cytotoxicity against human SF-295 cells assessed as cell viability at 10 uM incubated for 48 hrs by sulforhodamine B assay relative to control
SF-539 = assay: Cytotoxicity against human SF-539 cells assessed as cell viability at 10 uM incubated for 48 hrs by sulforhodamine B assay relative to control
SNB-19 = assay: Cytotoxicity against human SNB-19 cells assessed as cell viability at 10 uM incubated for 48 hrs by sulforhodamine B assay relative to control
SNB-75 = assay: Cytotoxicity against human SNB-75 cells assessed as cell viability at 10 uM incubated for 48 hrs by sulforhodamine B assay relative to control
U-251 = assay: Cytotoxicity against human U-251 cells assessed as cell viability at 10 uM incubated for 48 hrs by sulforhodamine B assay relative to control
LOX IMVI = assay: Cytotoxicity against human LOX IMVI cells assessed as cell viability at 10 uM incubated for 48 hrs by sulforhodamine B assay relative to control

With `O=S(=O)(NCCCNc1nccc(-c2c(-c3cccc(F)c3)nc3sccn23)n1)c1ccccc1` the viability at 10 µM (Hs-578T) was 89.9%, the viability at 10 µM (MDA-MB-231) was 70.8% and the viability at 10 µM (MCF7) was 50.8%. It also gave a viability at 10 µM (DU-145) of 72.7%, a viability at 10 µM (PC-3) of 53.5% and a viability at 10 µM (UO-31) of 39%. It also gave a viability at 10 µM (TK-10) of 92.8%, a viability at 10 µM (SN12C) of 58.2% and a viability at 10 µM (RXF 393) of 84%. It also gave a viability at 10 µM (CAKI-1) of 56.4%, a viability at 10 µM (ACHN) of 54.1% and a viability at 10 µM (786-0) of 74%. It also gave a viability at 10 µM (OVCAR-8) of 43%, a viability at 10 µM (OVCAR-5) of 121% and a viability at 10 µM (OVCAR-3) of 74.9%. It also gave a viability at 10 µM (IGROV-1) of 35.2%, a viability at 10 µM (UACC-257) of 86.7% and a viability at 10 µM (SK-MEL-5) of 30.7%. It also gave a viability at 10 µM (SK-MEL-28) of 83.4%, a viability at 10 µM (SK-MEL-2) of 65.1% and a viability at 10 µM (M14) of 50.5%. It also gave a viability at 10 µM (MOLT-4) of 37.1%, a viability at 10 µM (RPMI-8226) of 48% and a viability at 10 µM (SR) of 82.2%. For the same compound, the viability at 10 µM (A549) was 63%, the viability at 10 µM (HOP-62) was 98.9% and the viability at 10 µM (HOP-92) was 80.2%. The viability at 10 µM (NCI-H226) was 43.2%, the viability at 10 µM (NCI-H23) was 76.9% and the viability at 10 µM (NCI-H322M) was 89.3%. The viability at 10 µM (COLO 205) was 29%, the viability at 10 µM (HCC 2998) was 120% and the viability at 10 µM (HCT-116) was 56.7%. For the same compound, the viability at 10 µM (HCT-15) was 37.8%, the viability at 10 µM (HCT-29) was 32.9% and the viability at 10 µM (SF-295) was 79.9%. For the same compound, the viability at 10 µM (SF-539) was 99.1%, the viability at 10 µM (SNB-19) was 93.5% and the viability at 10 µM (SNB-75) was 102%. For the same compound, the viability at 10 µM (U-251) was 82.3% and the viability at 10 µM (LOX IMVI) was 50.3%.

With `O=S(=O)(NCCCNc1nccc(-c2c(-c3cccc(F)c3)nc3sccn23)n1)c1ccc(Br)cc1` the viability at 10 µM (Hs-578T) was 71.7%, the viability at 10 µM (MDA-MB-231) was 76.4% and the viability at 10 µM (MCF7) was 41.9%. The viability at 10 µM (DU-145) was 61.9%, the viability at 10 µM (PC-3) was 40.8% and the viability at 10 µM (UO-31) was 31.6%. It also gave a viability at 10 µM (TK-10) of 74.8%, a viability at 10 µM (SN12C) of 53.9% and a viability at 10 µM (RXF 393) of 81.8%. For the same compound, the viability at 10 µM (CAKI-1) was 50.3%, the viability at 10 µM (ACHN) was 50.3% and the viability at 10 µM (786-0) was 73.5%. It also gave a viability at 10 µM (OVCAR-8) of 28%, a viability at 10 µM (OVCAR-5) of 110% and a viability at 10 µM (OVCAR-3) of 57.8%. The viability at 10 µM (IGROV-1) was 24.4%, the viability at 10 µM (UACC-257) was 62.4% and the viability at 10 µM (SK-MEL-5) was 21.2%. For the same compound, the viability at 10 µM (SK-MEL-28) was 67%, the viability at 10 µM (SK-MEL-2) was 61.4% and the viability at 10 µM (M14) was 48.1%. For the same compound, the viability at 10 µM (MOLT-4) was 33.8%, the viability at 10 µM (RPMI-8226) was 39.4% and the viability at 10 µM (SR) was 78.1%. It also gave a viability at 10 µM (A549) of 55.1%, a viability at 10 µM (HOP-62) of 94.4% and a viability at 10 µM (HOP-92) of 73.7%. It also gave a viability at 10 µM (NCI-H226) of 32.7%, a viability at 10 µM (NCI-H23) of 57.4% and a viability at 10 µM (NCI-H322M) of 81%. It also gave a viability at 10 µM (COLO 205) of 33.5%, a viability at 10 µM (HCC 2998) of 96.9% and a viability at 10 µM (HCT-116) of 46.2%. It also gave a viability at 10 µM (HCT-15) of 26.4%, a viability at 10 µM (HCT-29) of 23.8% and a viability at 10 µM (SF-295) of 64.2%. For the same compound, the viability at 10 µM (SF-539) was 98%, the viability at 10 µM (SNB-19) was 84.5% and the viability at 10 µM (SNB-75) was 88.6%. It also gave a viability at 10 µM (U-251) of 76.7% and a viability at 10 µM (LOX IMVI) of 40.2%.

With `O=S(=O)(NCCCNc1nccc(-c2c(-c3cccc(F)c3)nc3sccn23)n1)c1ccc(Cl)cc1` the viability at 10 µM (Hs-578T) was 94.6%, the viability at 10 µM (MDA-MB-231) was 77.9% and the viability at 10 µM (MCF7) was 61.7%. For the same compound, the viability at 10 µM (DU-145) was 78.2%, the viability at 10 µM (PC-3) was 52% and the viability at 10 µM (UO-31) was 41.8%. For the same compound, the viability at 10 µM (TK-10) was 99%, the viability at 10 µM (SN12C) was 65.9% and the viability at 10 µM (RXF 393) was 99.6%. The viability at 10 µM (CAKI-1) was 63%, the viability at 10 µM (ACHN) was 60% and the viability at 10 µM (786-0) was 83.6%. The viability at 10 µM (OVCAR-8) was 50.2%, the viability at 10 µM (OVCAR-5) was 125% and the viability at 10 µM (OVCAR-3) was 79.8%. For the same compound, the viability at 10 µM (IGROV-1) was 42.7%, the viability at 10 µM (UACC-257) was 103% and the viability at 10 µM (SK-MEL-5) was 40.9%. The viability at 10 µM (SK-MEL-28) was 92.3%, the viability at 10 µM (SK-MEL-2) was 79.9% and the viability at 10 µM (M14) was 66.1%. The viability at 10 µM (MOLT-4) was 48.3%, the viability at 10 µM (RPMI-8226) was 55.3% and the viability at 10 µM (SR) was 92.9%. The viability at 10 µM (A549) was 66.9%, the viability at 10 µM (HOP-62) was 102% and the viability at 10 µM (HOP-92) was 85.7%. For the same compound, the viability at 10 µM (NCI-H226) was 46.9%, the viability at 10 µM (NCI-H23) was 86% and the viability at 10 µM (NCI-H322M) was 93.2%. The viability at 10 µM (COLO 205) was 41.3%, the viability at 10 µM (HCC 2998) was 123% and the viability at 10 µM (HCT-116) was 64%. It also gave a viability at 10 µM (HCT-15) of 49.6%, a viability at 10 µM (HCT-29) of 36.9% and a viability at 10 µM (SF-295) of 87.1%. It also gave a viability at 10 µM (SF-539) of 99.3%, a viability at 10 µM (SNB-19) of 93% and a viability at 10 µM (SNB-75) of 102%. It also gave a viability at 10 µM (U-251) of 90.2% and a viability at 10 µM (LOX IMVI) of 60.3%.
